Common to all, as to assay type: biochemical
One assay deals with T1, recombinant PRL-3 (Homo sapiens, UniProt O75365).
T1 construct: 6xHis (N, cleaved yes); made in house; host or cells: E. coli One Shot BL21 Star
Description: In vitro phosphatase assay (DiFMUP hydrolysis), PRL-3. Further: test concentration or dose not given here.

The target in the next assay is T2, recombinant PRL-1 (Homo sapiens, UniProt Q93096).
T2 construct: 6xHis (N, cleaved yes); made in house; host or cells: E. coli One Shot BL21 Star
T2 sequence (Q93096 1-173): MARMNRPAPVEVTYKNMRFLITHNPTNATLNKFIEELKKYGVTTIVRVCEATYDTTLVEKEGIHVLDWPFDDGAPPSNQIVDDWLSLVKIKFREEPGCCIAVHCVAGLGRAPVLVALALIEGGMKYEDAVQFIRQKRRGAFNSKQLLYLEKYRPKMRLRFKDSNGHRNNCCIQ
Description: In vitro phosphatase assay (DiFMUP hydrolysis), PRL-1. Further: test concentration or dose not given here.

In another assay the target is T3, recombinant PRL-2 (Homo sapiens, UniProt Q12974).
T3 construct: 6xHis (N, cleaved yes); made in house; host or cells: E. coli One Shot BL21 Star
T3 sequence (Q12974 1-167): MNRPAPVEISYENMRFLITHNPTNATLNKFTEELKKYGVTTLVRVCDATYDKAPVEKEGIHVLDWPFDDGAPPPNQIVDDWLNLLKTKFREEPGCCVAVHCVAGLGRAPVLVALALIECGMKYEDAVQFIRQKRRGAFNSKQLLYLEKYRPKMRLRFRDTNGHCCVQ
The experiment in a line: In vitro phosphatase assay (DiFMUP hydrolysis), PRL-2.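 Further: PRL-2 activity read as DiFMUP hydrolysis after 20 min at room temperature with drug, enzyme first pre-reduced at 4 °C for 20 min.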

[1] abbreviates: FDA-approved drug screen, compared to DMSO.

Where a name gives a salt, the structure may show the parent alone. Read-outs that look alike come from different tables or passages of the source.

T1 sequence (O75365 whole entry): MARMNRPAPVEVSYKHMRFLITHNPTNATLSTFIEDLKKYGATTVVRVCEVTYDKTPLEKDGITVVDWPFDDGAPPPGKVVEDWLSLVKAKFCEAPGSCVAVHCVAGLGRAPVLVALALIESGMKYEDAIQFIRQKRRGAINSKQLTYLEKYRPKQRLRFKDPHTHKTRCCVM

For the compound `CCOc1ccc(Cc2cc([C@@H]3O[C@H](CO)[C@@H](O)[C@H](O)[C@H]3O)ccc2Cl)cc1` [Dapagliflozin], the “% Phosphatase Activity (compared to DMSO) PRL-3” value at recombinant PRL-3 came out at 89%. Moreover, at recombinant PRL-1, the “% Phosphatase Activity (compared to DMSO) PRL-1” value turned out to be 98%. Moreover, the “% Phosphatase Activity (compared to DMSO) PRL-2” value on recombinant PRL-2 is 91%.

In the case of `CN(C)[C@@H](CCOc1cccc2ccccc12)c1ccccc1` [Dapoxetine HCl], the “% Phosphatase Activity (compared to DMSO) PRL-3” value at recombinant PRL-3 (setting [1]) is on record as 111%. Moreover, the “% Phosphatase Activity (compared to DMSO) PRL-1” value at recombinant PRL-1 (setting [1]) was 99%. Besides, the “% Phosphatase Activity (compared to DMSO) PRL-2” value on recombinant PRL-2 (setting [1]) amounted to 109%.

Take `Nc1ccc(S(=O)(=O)c2ccc(N)cc2)cc1` [Dapson]: the “% Phosphatase Activity (compared to DMSO) PRL-3” value on recombinant PRL-3 (setting [1]) is 75%. In addition, the “% Phosphatase Activity (compared to DMSO) PRL-1” value on recombinant PRL-1 (setting [1]) worked out at 89%. For the same compound, the “% Phosphatase Activity (compared to DMSO) PRL-2” value at recombinant PRL-2 (setting [1]) amounted to 100%.

Regarding `CCCCCCCCCC(=O)N[C@@H](Cc1c[nH]c2ccccc12)C(=O)N[C@H](CC(N)=O)C(=O)N[C@@H](CC(=O)O)C(=O)N[C@@H]1C(=O)NCC(=O)N[C@@H](CCCN)C(=O)N[C@@H](CC(=O)O)C(=O)N[C@H](C)C(=O)N[C@@H](CC(=O)O)C(=O)NCC(=O)N[C@H](CO)C(=O)N[C@@H]([C@H](C)CC(=O)O)C(=O)N[C@@H](CC(=O)c2ccccc2N)C(=O)O[C@@H]1C` [Daptomycin], on recombinant PRL-3 (setting [1]), the “% Phosphatase Activity (compared to DMSO) PRL-3” value turned out to be 95%. Besides, the “% Phosphatase Activity (compared to DMSO) PRL-1” value at recombinant PRL-1 (setting [1]) is 90%. Besides, the “% Phosphatase Activity (compared to DMSO) PRL-2” value at recombinant PRL-2 (setting [1]) is listed as 75%.

With `NC(=O)C(c1ccccc1)(c1ccccc1)[C@@H]1CCN(CCc2ccc3c(c2)CCO3)C1` [Darifenacin HBr], the “% Phosphatase Activity (compared to DMSO) PRL-3” value on recombinant PRL-3 is 87%. Also, on recombinant PRL-1, the “% Phosphatase Activity (compared to DMSO) PRL-1” value is 100%. Moreover, the “% Phosphatase Activity (compared to DMSO) PRL-2” value at recombinant PRL-2 is given as 102%.

With `CC(C)CN(C[C@@H](O)[C@H](Cc1ccccc1)NC(=O)O[C@H]1CO[C@H]2OCC[C@H]21)S(=O)(=O)c1ccc(N)cc1.CCO` [Darunavir Ethanolate], the “% Phosphatase Activity (compared to DMSO) PRL-3” value on recombinant PRL-3 (setting [1]) is listed as 80%. Besides, on recombinant PRL-1 (setting [1]), the “% Phosphatase Activity (compared to DMSO) PRL-1” value was 99%. Moreover, the “% Phosphatase Activity (compared to DMSO) PRL-2” value on recombinant PRL-2 (setting [1]) amounted to 81%.

`Cc1nc(Nc2ncc(C(=O)Nc3c(C)cccc3Cl)s2)cc(N2CCN(CCO)CC2)n1` [Dasatinib Monohydrate]: on recombinant PRL-3 (setting [1]), the “% Phosphatase Activity (compared to DMSO) PRL-3” value came out at 98%. Moreover, the “% Phosphatase Activity (compared to DMSO) PRL-1” value on recombinant PRL-1 (setting [1]) was 97%. In addition, on recombinant PRL-2 (setting [1]), the “% Phosphatase Activity (compared to DMSO) PRL-2” value is listed as 79%.

Turning to `Cc1nc(Nc2ncc(C(=O)Nc3c(C)cccc3Cl)s2)cc(N2CCN(CCO)CC2)n1` [Dasatinib], the “% Phosphatase Activity (compared to DMSO) PRL-3” value on recombinant PRL-3 (setting [1]) is listed as 81%. Further, the “% Phosphatase Activity (compared to DMSO) PRL-1” value on recombinant PRL-1 (setting [1]) came out at 89%. For the same compound, the “% Phosphatase Activity (compared to DMSO) PRL-2” value at recombinant PRL-2 (setting [1]) was 88%.

Turning to `COc1cccc2c1C(=O)c1c(O)c3c(c(O)c1C2=O)C[C@@](O)(C(C)=O)C[C@@H]3O[C@H]1C[C@H](N)[C@H](O)[C@H](C)O1` [Daunorubicin HCl], the “% Phosphatase Activity (compared to DMSO) PRL-3” value at recombinant PRL-3 (setting [1]) is reported as 82%. On recombinant PRL-1 (setting [1]), the “% Phosphatase Activity (compared to DMSO) PRL-1” value was determined as 83%. In addition, the “% Phosphatase Activity (compared to DMSO) PRL-2” value on recombinant PRL-2 (setting [1]) is reported as 92%.

Regarding `Nc1ncn([C@H]2C[C@H](O)[C@@H](CO)O2)c(=O)n1` [Decitabine], the “% Phosphatase Activity (compared to DMSO) PRL-3” value on recombinant PRL-3 (setting [1]) was 81%. The “% Phosphatase Activity (compared to DMSO) PRL-1” value on recombinant PRL-1 (setting [1]) is given as 114%. Moreover, on recombinant PRL-2 (setting [1]), the “% Phosphatase Activity (compared to DMSO) PRL-2” value is 93%.

For `CNC(=O)c1ccc(Nc2ncc(C(F)(F)F)c(NCc3nccnc3N(C)S(C)(=O)=O)n2)cc1` [Defactinib (VS-6063, PF-04554878)], the “% Phosphatase Activity (compared to DMSO) PRL-3” value on recombinant PRL-3 (setting [1]) worked out at 89%. In addition, the “% Phosphatase Activity (compared to DMSO) PRL-1” value at recombinant PRL-1 (setting [1]) is listed as 98%. For the same compound, the “% Phosphatase Activity (compared to DMSO) PRL-2” value at recombinant PRL-2 (setting [1]) is 87%.

With `O=C(O)c1ccc(-n2nc(-c3ccccc3O)nc2-c2ccccc2O)cc1` [Deferasirox], the “% Phosphatase Activity (compared to DMSO) PRL-3” value on recombinant PRL-3 (setting [1]) stood at 81%. Moreover, the “% Phosphatase Activity (compared to DMSO) PRL-1” value on recombinant PRL-1 (setting [1]) is on record as 108%. In addition, the “% Phosphatase Activity (compared to DMSO) PRL-2” value on recombinant PRL-2 (setting [1]) turned out to be 104%.

For the compound `CC(=O)OCC(=O)[C@@]12N=C(C)O[C@@H]1C[C@H]1[C@@H]3CCC4=CC(=O)C=C[C@]4(C)[C@H]3[C@@H](O)C[C@@]12C` [Deflazacort], the “% Phosphatase Activity (compared to DMSO) PRL-3” value on recombinant PRL-3 (setting [1]) is 103%. In addition, the “% Phosphatase Activity (compared to DMSO) PRL-1” value on recombinant PRL-1 (setting [1]) was 90%. Further, the “% Phosphatase Activity (compared to DMSO) PRL-2” value on recombinant PRL-2 (setting [1]) amounted to 102%.

For the compound `CC(=O)C1C(=O)C=C(C)OC1=O` (stereo not drawn) [Dehydroacetic acid], the “% Phosphatase Activity (compared to DMSO) PRL-3” value on recombinant PRL-3 (setting [1]) was determined as 90%. For the same compound, the “% Phosphatase Activity (compared to DMSO) PRL-1” value on recombinant PRL-1 (setting [1]) is given as 99%. On recombinant PRL-2 (setting [1]), the “% Phosphatase Activity (compared to DMSO) PRL-2” value worked out at 98%.

Take `C[C@H](CCC(=O)O)[C@H]1CC[C@H]2[C@@H]3C(=O)C[C@@H]4CC(=O)CC[C@]4(C)[C@H]3CC(=O)[C@]12C` [Dehydrocholic acid]: at recombinant PRL-3 (setting [1]), the “% Phosphatase Activity (compared to DMSO) PRL-3” value worked out at 80%. Moreover, the “% Phosphatase Activity (compared to DMSO) PRL-1” value at recombinant PRL-1 (setting [1]) worked out at 103%. In addition, on recombinant PRL-2 (setting [1]), the “% Phosphatase Activity (compared to DMSO) PRL-2” value is 118%.

These data come from article PMC8119466, “A screen of FDA-approved drugs identifies inhibitors of protein tyrosine phosphatase 4A3 (PTP4A3 or PRL-3)” (Scientific Reports, 2021).
